The bioavailability is dose-corrected exposure relative to a reference, in per cent. A higher bioavailability goes with much systemic uptake.

“Also recorded” adds a separate entry of the source.

The record followed here is patent US20250388571A1, “AMP-ACTIVATED PROTEIN KINASE MODULATOR COMPOUNDS AND USES THEREOF” (Biolexis Therapeutics, Inc., priority 2024, published 2025).

The test system of series [1] is Human white preadipocyte (HWP) cells. As to the kind of experiment: Glucose uptake assay, human white preadipocyte cells. Format: cell-based. The protocol: (§1) FIGS. 5-8 show results for glucose update assays in Human white preadipocyte (HWP) cells (Promocell, cat. No. C-12735) when treated with compound I-11 (FIG. 5), compound I-7 (FIG. 6), MK-8722 (FIG. 7), and PF-06409577 (FIG. 8). HWP cells (subcutaneous upper arm of obese patient) were starved for 3 hours in DMEM without FBS, treated with the components noted above in […] DMEM without FBS/glucose for 1 hour, and glucose uptake was detected using a glucose uptake kit (Promega). […] The bars show (from left to right) concentrations of 100 μM, 33 μM, 11 μM, 3.7 μM, 1.23 μM, 0.41 μM, 0.14 μM, 0.045 μM, 0.015 μM, 0.005 μM, 0 μM, and insulin.
as §1, with “9-12” for “5-8”, “9),” for “5),”, “10),” for “6),”, “11),” for “7),”, “12).” for “8).”, “(abdomen cells)” for “(subcutaneous upper arm of obese patient)”
Human skeletal myoblasts were obtained (Thermofisher; BYU) and cultured in DMEM/F12 medium with 10% FBS. For differentiation, 2% horse serum low glucose DMEM medium was employed for 72 hours. Human cardiomyocytes cells (HCM cells; Promocell) were cultured in myocyte growth medium (Promocell). Human preadipocyte HWP-c cells (Promocell) were obtained from upper arm of diabetic II donor. Human preadipocyte HWP-c cells (Promocell) were obtained from abdomen of diabetic II donor. For differentiating human preadipocytes, cells were cultured in preadipocyte growth medium to total confluency stage. The growth medium was replaced with preadipocyte differentiation medium for 72 hours, then changed to PromoCell adipocyte nutrition medium to complete the differentiation process. THLE-2 cells were cultured in BEGM from Lonza/Clonetics Corporation, Walkersville, MD 21793 (BEGM Bullet Kit; CC3170). HepG2, L6 and C2Cl2 cells were cultured in EMEM medium.
After differentiation myoblasts, preadipocyte cells were starved by removing the medium and adding 100 μL DMEM without serum. The medium was then replaced with 100 μL DMEM±1 μM insulin at indicated concentration of representative compounds without serum or glucose. The cells were then incubated for 1 hour at 37° C. in 5% CO2. The cells were then removed from the medium and 50 μL of 0.1 mM 2DG in PBS was added. Cells were incubated for 30 minutes at 25° C. 25 μL of Stop Buffer was added and samples were mixed. 25 μL of Neutralization Buffer was then added and mixed. 100 μL of 2DG6P Detection Reagent was then added and mixed. Samples were then incubated for 1 hour at 25° C. Luminescence was then recorded with 0.3-1 second integration on a luminometer.

Series [2] has as its system AMPK signal pathway in HSKM cells. As to the kind of experiment: Western blot assay, HSKM cells. The format is cell-based, human. (Immunoblotting shows a protein as a band on a membrane.)
Series [3] concerns AMPK signal pathway in human cardiac myocytes (HCM). As to the kind of experiment: Western blot assay, human cardiomyocytes. The format is cell-based.
Series [4] is described as follows: PK oral bioavailability experiment, rat. The format is in vivo, male Wistar rat. The protocol: A total of 18 male Wistar rats were allotted for the study. Animals were allotted in to 2 groups of 9 rat per each group. In each group, first set of three animals were used for PK study, next set of three and followed by other set of three animals were used for 0.5 h and 1 h brain, CSF, and blood collection purpose for intravenous and oral groups, respectively. On day of dosing all the animals were fasted overnight.
Approximately 0.3 mL of blood sample from each animal was collected via jugular vein at predetermined time points at 0.083 (only IV), 0.25, 0.5, 1, 2, 4, 6, 8 and 24 h intervals in pre-labeled Eppendorf tubes containing anticoagulant K2EDTA (20 μL per mL of blood). Blood sample was centrifuged at 5000 rpm for 10 min under refrigeration (2-4° C.) to obtain plasma. For brain and CSF uptake study, after 0.5 h and 1 h CSF and whole brain was withdrawn, and brain tissue was homogenized as a terminal sampling. Blood samples were centrifuged under refrigeration (2-4° C.) within 0.5 h to obtain plasma. The separated plasma samples were collected in pre labeled tubes within 60 min of separation and stored at −20° C. up to 24 h. Post 24 h sample collection, all plasma samples were transferred to deep freezer custodian to store below or at −70° C. till shipment.
Brain tissues were blotted and dried and then transferred to 15 mL falcon tubes. Initially all tissue samples were stored at −20±3° C. Later, all brain tissue samples were homogenized with PBS at 1:4 ratio and the Brain homogenate was transferred to Deep freezer (−70±10° C.) and stored until bioanalysis.
The PK parameters were evaluated using Phoenix WinNonlin® Ent-Version 8.3 by non-compartmental analysis.

Series [5] deals with HSKM cells. As to the kind of experiment: CyQUANT Cytotoxicity Assay (G6PD assay), HSKM. The conditions noted are these: treated 2 hours.
Experimental: The CyQUANT Cytotoxicity Assay (Thermofisher, cat no: V23111) was used to detect damaged and dying cells by means of their release of glucose 6-phosphate dehydrogenase into the surrounding medium. Cells were plated in a 96-well microplate (500-25,000 cells/well in a 50-μL volume). Three sets of triplicate wells were reserved for the following controls: a no-cell control (medium alone), untreated cells, and completely lysed cells. Cells were starved for 2 h and then add the indicated AMPK activators (50 μL) to the experimental wells and incubate for 2 hours, 50 μL of 2× reaction mixture was added to each well. 1 μL of 100× Cell-Lysis buffer was added to the completely lysed control wells only. Cells were incubated at 37° C. for 10-30 minutes. Fluorescence was measured (excitation 530-560 nm, emission 580-600 nm) at 5-minute intervals to determine the optimal time point for the experiment.
To text toxicity, after differentiation of human skeletal muscle cells, HSKM were starved with DMEM medium without FBS/glucose for 2 hours. […] The resultant reaction mixture was then assayed for glucose 6-phosphate dehydrogenase release. An untreated control sample and completely lysed cells were detected for comparison. The fluorescence was measured in a microplate reader (excitation/emission ˜530/590 nm).

Regarding `O=c1[nH]c(-c2c[nH]c3cc(F)c(-c4ccc(C5(O)CCC5)cc4)c(F)c23)no1` [Compound I-11, 3-(4,6-difluoro-5-(4-(1-hydroxycyclobutyl)phenyl)-1H-indol-3-yl)-1,2,4-oxadiazol-5(4H)-one], in series [1] (HWP cells, subcutaneous upper arm of obese patient, 100 μM to 0.005 μM, 1 hour), the “dose dependence of glucose uptake (printed: activates insulin)” value is “dose dependent manner”. Moreover, the glucose uptake entry in series [1] (human adipocyte cells / HWP-c cells, donor site not stated) is “induced glucose uptake; also recorded: dosage-dependent manner”. In series [2] (HSKM cells), the AMPK isoform expression entry is reported as “increased AMPKα2β1γ3 expression” and the “potency compared with reference compound MK-8722 (p-ACC, p-AMPK)” value is “more potency activity”. The “p-ACC and p-AMPK induction” value in series [2] (HSKM cells, 1 hour) is on record as “dosage-dependent manner”. Also, in series [2] (some high dosage groups, cell type not given), the “p-AMPK, p-ACC, and p-Raptor expression” value was “could induce”. For the same compound, in series [3], the “p-ACC/p-AMPK and AMPKα2β2γ3 expression” value is given as “did not activate”. Further, the “systemic exposure following oral administration” value in series [4] (5 mg/kg oral) is listed as “low systemic exposure”. In addition, in series [4] (0.5 h and 1 h), the “concentrations in brain tissue” value is “no concentrations in brain tissue”. The bioavailability in series [4] (male, Wistar, plasma, 5 mg/kg oral vs 1 mg/kg intravenous) is 6%. Besides, the “toxicity compared to reference compounds MK-8722 and PF-06409577 (G6PD release)” value in series [5] is “less toxicity”.
